Reference: article PMC8306930, “A Comparative Analysis of the In Vitro Anticancer Activity of Iridium(III) {η^5-C5Me4R} Complexes with Variable R Groups” (International Journal of Molecular Sciences, 2021)

Columns and labels:
B16 mouse melanoma cells [1] = assay: CV (crystal violet) viability assay, B16; format: cell-based; conditions: B16, 72 h exposure, mean ± SD
Excerpt: (§1) The rat astrocytoma C6 cell line and murine melanoma B16 cell line were kindly gifted by Dr. L. Harhaji–Trajkovic, Institute for Biological Research “Sinisa Stankovic”—National Institute of Republic of Serbia (IBISS), and from Dr. Sinisa Radulovic (Institute for Oncology and Radiology of Serbia), respectively. Human colorectal (SW620 and HCT116), breast (MCF-7), and ovarian (A2780) cancer cell lines and non-malignant fibroblast cell line (MRC5) were purchased from the American Type Culture Collection (ATCC, Manassas, Virginia, USA). […] For viability assays, cells were seeded in listed densities/well: B16 and C6: 3 × 10^3; SW620: 9 × 10^3; A2780 and HCT116: 5 × 10^3; MCF-7: 8 × 10^3 and MRC5: 7 × 10^3. For flow cytometry, A2780 cells were seeded at 2 × 10^5 density/well in 6-well plates. Peritoneal macrophages were collected from the peritoneal cavity of C57BL/6 mice from the animal facility of IBISS by cavity lavage with ice-cold PBS. […] Macrophages were counted, seeded at 2 × 10^5 cells/well in 96-well plates for viability assay, and then left for 2 h to adhere. Before treatment, non-adherent cells were removed. The handling of animals and protocol for obtaining macrophages is in the agreement with the rules of the European Union and approved by the Institutional Animal Care and Use Committee at IBISS (No. 02-09/16).
(§2) Stock solutions of 1b, 1c, 1d, and 1e were prepared in ethanol at concentration of 20 mM and kept at −20 °C, while 10 mM stock solution of cisplatin was prepared in DMF just before the usage. Desired final concentrations were obtained by dilution in culture medium.
(§3) Cells were treated with various concentrations (up to 50 or 100 µM) of the above-mentioned complexes for 72 h. For the detection of mitochondrial respiration, cells were cultivated in the presence of MTT staining solution (0.5 mg/mL) for approximately 1 h at 37 °C. The dye was then discarded, and the formed formazan crystals (purple) were dissolved in DMSO. For an evaluation of viable attached cells, cells were fixed with 4% PFA for 10 min at room temperature, and subsequently stained for 15 min with 0.02% CV solution. […] The absorbance was measured with an automated microplate reader at 540 nm, with a reference wavelength of 670 nm. The IC50 values were calculated using a four-parameter logistic function and presented as mean ± SD from three independent experiments.

[2] = system: A2780 human ovarian cancer cells; assay: MTT viability assay, A2780; format: cell-based; conditions: A2780, 72 h exposure, mean ± SD
Excerpt: as §1, §2, §3

C6 rat glioma cells [3] = assay: CV viability assay, C6; format: cell-based; conditions: C6, 72 h exposure, mean ± SD
Excerpt: as §1, §2, §3

[4] = system: A2780 human ovarian cancer cells; assay: CV viability assay, A2780; format: cell-based; conditions: A2780, 72 h exposure, mean ± SD
Excerpt: as §1, §2, §3

[5] = system: MCF-7 human breast cancer cells; assay: CV viability assay, MCF-7; format: cell-based; conditions: MCF-7, 72 h exposure, mean ± SD
Excerpt: as §1, §2, §3

B16 mouse melanoma cells [6] = assay: MTT viability assay, B16; format: cell-based; conditions: B16, 72 h exposure, mean ± SD
Excerpt: as §1, §2, §3

C6 rat glioma cells [7] = assay: MTT viability assay, C6; format: cell-based; conditions: C6, 72 h exposure, mean ± SD
Excerpt: as §1, §2, §3

[8] = system: MCF-7 human breast cancer cells; assay: MTT viability assay, MCF-7; format: cell-based; conditions: MCF-7, 72 h exposure, mean ± SD
Excerpt: as §1, §2, §3

[9] = system: MRC5 human fibroblast cells; assay: CV viability assay, MRC5; format: cell-based; conditions: MRC5, 72 h exposure, mean ± SD
Excerpt: as §1, §2, §3

[10] = system: HCT116 human colorectal carcinoma cells; assay: CV viability assay, HCT116; format: cell-based; conditions: HCT116, 72 h exposure, mean ± SD
Excerpt: as §1, §2, §3

[11] = system: HCT116 human colorectal carcinoma cells; assay: MTT viability assay, HCT116; format: cell-based; conditions: HCT116, 72 h exposure, mean ± SD
Excerpt: as §1, §2, §3

[12] = system: SW620 human colorectal adenocarcinoma cells; assay: MTT viability assay, SW620; format: cell-based; conditions: SW620, 72 h exposure, mean ± SD
Excerpt: as §1, §2, §3

[13] = system: SW620 human colorectal adenocarcinoma cells; assay: CV viability assay, SW620; format: cell-based; conditions: SW620, 72 h exposure, mean ± SD
Excerpt: as §1, §2, §3

[14] = system: MRC5 human fibroblast cells; assay: MTT viability assay, MRC5; format: cell-based; conditions: MRC5, 72 h exposure, mean ± SD
Excerpt: as §1, §2, §3

[15] = Stability in D2O mixtures by 1H NMR; format: physicochemical; conditions: for Variation of 1H NMR spectra on storage: acetone-d6/D2O 2:1 (1b,d) or methanol-d4/D2O 2:1 (1c), 72 h at 37 °C, progressive precipitation
Experimental: Complexes were dissolved in acetone-d6/D2O 2:1 (1b,d), DMSO-d6/D2O 2:1 (2a–d and 3), or methanol-d4/D2O 2:1 (1c) ([Ir] ≈ 10^−3 mol L^−1), then dimethyl sulfone (0.05 mL, 0.164 mmol) was added as internal standard. The mixtures were filtered through a celite pad, and the filtrated solutions were analyzed by ^1H NMR spectroscopy.
The solutions were then stored for 72 h at 37 °C, and new NMR analyses were subsequently performed.

[16] = system: panel of six human and rodent cancer cell lines and MRC5; assay: Cytotoxic activity over the whole cell line panel (MTT and CV); format: cell-based; conditions: 72 h; for Cytotoxic activity in words: all investigated cell lines
Experimental: Cells were treated with various concentrations (up to 50 or 100 µM) of the above-mentioned complexes for 72 h. For the detection of mitochondrial respiration, cells were cultivated in the presence of MTT staining solution (0.5 mg/mL) for approximately 1 h at 37 °C. The dye was then discarded, and the formed formazan crystals (purple) were dissolved in DMSO. For an evaluation of viable attached cells, cells were fixed with 4% PFA for 10 min at room temperature, and subsequently stained for 15 min with 0.02% CV solution. Cells were then washed with tap water, dried in air, and the CV dye was dissolved in 33% acetic acid. The absorbance was measured with an automated microplate reader at 540 nm, with a reference wavelength of 670 nm. The IC50 values were calculated using a four-parameter logistic function and presented as mean ± SD from three independent experiments.

[17] = system: primary mouse peritoneal cells; assay: Viability of primary mouse peritoneal cells (macrophages); format: cell-based
Excerpt: The rat astrocytoma C6 cell line and murine melanoma B16 cell line were kindly gifted by Dr. L. Harhaji–Trajkovic, Institute for Biological Research “Sinisa Stankovic”—National Institute of Republic of Serbia (IBISS), and from Dr. Sinisa Radulovic (Institute for Oncology and Radiology of Serbia), respectively. Human colorectal (SW620 and HCT116), breast (MCF-7), and ovarian (A2780) cancer cell lines and non-malignant fibroblast cell line (MRC5) were purchased from the American Type Culture Collection (ATCC, Manassas, Virginia, USA). […] For viability assays, cells were seeded in listed densities/well: B16 and C6: 3 × 10^3; SW620: 9 × 10^3; A2780 and HCT116: 5 × 10^3; MCF-7: 8 × 10^3 and MRC5: 7 × 10^3. For flow cytometry, A2780 cells were seeded at 2 × 10^5 density/well in 6-well plates. […] Macrophages were counted, seeded at 2 × 10^5 cells/well in 96-well plates for viability assay, and then left for 2 h to adhere. […]
Cells were treated with various concentrations (up to 50 or 100 µM) of the above-mentioned complexes for 72 h. […] The absorbance was measured with an automated microplate reader at 540 nm, with a reference wavelength of 670 nm. The IC50 values were calculated using a four-parameter logistic function and presented as mean ± SD from three independent experiments.

A2780 cells [18] = assay: Mitochondrial membrane potential, DiOC6(3) flow cytometry; format: cell-based, human; conditions: A2780, IC50 doses, 24 h, in comparison with untreated cells
Experimental: (§4) Experiments were carried out in three independent replicates.

A2780 cells [19] = assay: ROS/RNS, DHR123 flow cytometry; format: cell-based, human; conditions: A2780, IC50 doses, 48 h, DHR123, with respect to untreated cultures
Experimental: as §4

A2780 cells [20] = assay: Senescence, FDG assay of beta galactosidase activity, flow cytometry; format: cell-based, human; conditions: A2780, IC50 doses, 48 h, in comparison to the control
Experimental: as §4

A2780 cells [21] = assay: Cell proliferation, CFSE flow cytometry; format: cell-based, human; conditions: A2780, IC50 doses, 72 h of incubation
Experimental: as §4

A2780 cells [22] = assay: Autophagosomes, acridine orange flow cytometry; format: cell-based, human; conditions: A2780, IC50 doses, 48 h, AO
Experimental: as §4

A2780 cells [23] = conditions: A2780, IC50 doses, 48 h, AnnV/PI
Experimental: as §4

A2780 cells [24] = assay: Intracellular nitric oxide, DAF-FM flow cytometry; format: cell-based, human; conditions: A2780, IC50 doses, 48 h, with respect to untreated cultures
Experimental: as §4

Compound | IC50 (B16 mouse melanoma cells [1]) [µM] | IC50 [2] [µM] | IC50 (C6 rat glioma cells [3]) [µM] | IC50 [4] [µM] | IC50 [5] [µM] | IC50 (B16 mouse melanoma cells [6]) [µM] | IC50 (C6 rat glioma cells [7]) [µM] | IC50 [8] [µM] | IC50 [9] [µM] | IC50 [10] [µM] | IC50 [11] [µM] | IC50 [12] [µM] | IC50 [13] [µM] | IC50 [14] [µM] | Variation of 1H NMR spectra on storage [15] | Cytotoxic activity in words [16] | also measured
N.N.[Cl][Pt][Cl] [Cisplatin, cisplatin, reference compound] | 11.6 ± 0.3 | 1.9 ± 0.2 | 1.2 ± 0.1 | 3.8 ± 0.5 | 1.2 ± 0.3 | 5.6 ± 0.2 | 0.6 ± 0.2 | 0.8 ± 0.2 | 0.8 ± 0.1 | 8 ± 0.7 | 1.5 ± 0.1 | 11.6 ± 0.1 | 11 ± 3 | 0.6 ± 0.2 |  |  | 
Cc1[cH-]c(C)c(C)c1C.Cc1[cH-]c(C)c(C)c1C.[Cl-].[Cl-].[Cl-].[Cl-].[Ir+3].[Ir+3] [Complex 1b] | > 50 | > 50 | > 50 | > 50 | > 50 | > 50 | > 50 | > 50 | > 50 | > 50 | > 50 | > 50 | > 50 | > 50 | no significant variations | substantially inactive | 
CCC[c-]1c(C)c(C)c(C)c1C.CCC[c-]1c(C)c(C)c(C)c1C.[Cl-].[Cl-].[Cl-].[Cl-].[Ir+3].[Ir+3] [Complex 1c] | 44 ± 8 | 13 ± 1 | 54 ± 5 | 39 ± 7 | 55 ± 8 | 28 ± 4 | 27 ± 3 | 28 ± 5 | > 50 | 38 ± 3 | 30 ± 4 | 27 ± 2 | 45 ± 8 | 36 ± 2 | no significant variations | moderate cytotoxicity | 
CC1=C(C)[C](c2ccc(F)cc2)([Ir]([Cl])[Cl])C(C)=C1C.CC1=C(C)[C](c2ccc(F)cc2)([Ir]([Cl])[Cl])C(C)=C1C [Complex 1d] | 28.1 ± 0.1 | 16 ± 0.3 | 49 ± 1 | 20.2 ± 0.3 | 30 ± 0.4 | 20.4 ± 0.1 | 34 ± 2 | 9.2 ± 0.5 | 22.2 ± 0.1 | 14.5 ± 1.5 | 8.1 ± 0.7 | 8 ± 2 | 18.5 ± 0.4 | 19.1 ± 0.2 | no significant variations | moderate cytotoxicity | 
CC1=C(C)[C](c2ccc(O)cc2)([Ir]([Cl])[Cl])C(C)=C1C.CC1=C(C)[C](c2ccc(O)cc2)([Ir]([Cl])[Cl])C(C)=C1C [Complex 1e] | > 100 |  | > 100 |  | 94 ± 8 | > 100 | 90 ± 14 | 88 ± 12 | > 100 | 79 ± 8 | 80 ± 3 | > 100 | > 100 | > 100 |  | substantially inactive | Behaviour in aqueous media in the presence of DMSO ([15]; aqueous media with DMSO): rapid conversion into 3; IC50 ([16]; cell lines on which 1e is active, read-out: IC50 values, range over sensitive cell lines): 80 to 90 µM
CS(C)=O.Cc1c(C)c(C)[c-](-c2ccc(O)cc2)c1C.[Cl][Ir+][Cl] [Complex 3, (4-(2,3,4,5-tetramethylcyclopenta-1,4-dien-1-yl)phenol)dimethylsulfoxide iridium(III)dichloride] | > 100 |  | > 100 |  | > 100 | > 100 | > 100 | > 100 | > 100 | > 100 | > 100 | > 100 | > 100 | > 100 |  | inactive | Fraction of unaltered compound ([15]; DMSO-d6/D2O 2:1, 72 h at 37 °C, 1H NMR, dimethyl sulfone standard): 98%
tetramethylcyclopentadienyl)(2-phenylpyridine)iridium(III)chloride [Complex 2b] | 3 ± 0.1 | 5.5 ± 0.5 | 2.6 ± 0.1 | 4.4 ± 0.6 | 37 ± 3 | 2.5 ± 0.2 | 2.4 ± 0.3 | 8.6 ± 0.2 | 6 ± 2 | 7 ± 2 | 8 ± 0.2 | 2.6 ± 0.1 | 2.9 ± 0.5 | 6.7 ± 0.2 |  |  | Effect on viability of primary mouse peritoneal cells [17]: did not affect viability; Mitochondrial membrane hyperpolarization (A2780 cells [18]): 32.3%; Increase of intracellular levels of H2O2, HOCl and ONOO− (in total) (A2780 cells [19]): 46.4%; Increase of beta galactosidase activity (A2780 cells [20]): 38.4%; Effect on cell proliferation (A2780 cells [21]): inhibition of cell proliferation; High percentage of autophagosomes (A2780 cells [22]): not recognized; Induction of apoptotic cell death (A2780 cells [23]): modest induction; Increase of intracellular level of NO (A2780 cells [24]): 40.9%
